The values below come from patent publication US20100212049A1, “Compositions and Methods of Use of Response Regulators” (Pioneer Hi-Bred International, Inc., priority 2005, published 2010).

For experiment [1], the system named is Ckx1 transcripts. In words: Time-course of Ckx1 transcript induction by BA in maize leaf discs (Northern blot). Particulars: 10 μM BA, after 6 hours, 25° C. Type of experiment: cell-based, maize (inbred B73). How it is done: (§1) Two experiments were performed: one was an initial experiment to determine the time course for BA induction of Ckx1 transcripts in leaf discs, while the second experiment used the time-course information to optimize tissue harvest for the actual Lynx study. For the time-course experiment, leaf discs (5 mm in diameter) were collected from fully expanded leaves of 8-week old maize plants (inbred B73) and were incubated in petri dishes containing water or water plus 10 μM BA for different time periods at 25° C. For the Lynx experiment ˜300 leaf-discs were punched from ear leaves collected from 5 different maize B73 plants at flowering. Half of the discs were floated in a large petri dish on a solution containing 10 μM BA; the other half were floated on distilled water. Discs were incubated for 6 h at 25° C. in the light, blotted-dried, frozen in liquid nitrogen, and then submitted for Lynx analysis.
Time-course experiment: This perfunctory experiment was designed to learn the kinetics of Ckx1 transcript accumulation in response to BA. Ckx1 transcript levels were induced […] after 6 hours (FIG. 1).

For experiment [2], the system named is Ckx1 transcripts. Description: Lynx expression experiment, leaf discs floated on BA vs water: Ckx1. In kind it is cell-based, maize B73. Particulars: 10 μM BA, 6 h. How it is done:
(§2) A Lynx experiment was performed to identify genes in the cytokinin signaling and metabolism pathway, as well as the carbohydrate pathway, whose expression is modulated in response to elevated cytokinin levels. One goal of this experiment was to identify response regulators that could be involved in the cytokinin-signaling pathway and could potentially act as Ckx1 transcriptional regulators.
as §1, with “Half of the discs were floated in a large petri dish on a solution containing 10 μM BA; the other half were floated on distilled water. Discs were incubated for 6 h at 25° C. in the light, blotted-dried, frozen in liquid nitrogen, and then submitted for Lynx analysis.” left out
(§3) Nevertheless, differences in levels of expression of multiple genes were detected and these are presented as genes relevant to cytokinin response, isoprenoid (or terpenoid) biosynthesis, and cell division (Table 2).
A ˜30-fold increase in Ckx1 transcripts was measured after 6 h of BA application (Table 2). […]

Experiment [3] has as its system Zm Response regulator 5 (ZmRR5). Description: Lynx expression experiment, leaf discs floated on BA vs water: ZmRR5. In kind it is cell-based, maize B73. Particulars: 6 h. How it is done: as §2, §1, §3
(§4) A ˜30-fold increase in Ckx1 transcripts was measured after 6 h of BA application (Table 2). […] We also identified two new response regulators whose expression is induced by BA, ZmRRS and ZmRR6 (Table 2).

For experiment [4], the system named is Zm response regulator 6 (ZmRR6). In words: Lynx expression experiment, leaf discs floated on BA vs water: ZmRR6. Type of experiment: cell-based, maize B73. Particulars: 6 h. As for the experimental part:
as §2, §1, §3, §4

The next experiment relates to Ckx1. Particulars: maize leaf discs incubated with BA, compared to untreated controls; cited from earlier work.

For `c1ccc(CNc2ncnc3nc[nH]c23)cc1` [BA, benzyladenine], in the experiment with Ckx1 transcripts [1], the “Ckx1 transcript levels induced” value was ~15 fold. In the experiment with Ckx1 transcripts [2], the “increase in Ckx1 transcripts” value was ~30 fold. Also, the Up/down regulation result in experiment [3] (10 μM BA vs water) and in experiment [4] (10 μM BA vs water) was “up” throughout. Further, the “Ratio BA/Ctrl” value is given as 8.50 in experiment [3] (10 μM BA vs water, ppm ratio) and 8.75 in experiment [4] (10 μM BA vs water, ppm ratio). Besides, the “Cldba (treated sample) expression” value came to 395 ppm in experiment [3] (10 μM BA, Lynx) and 70 ppm in experiment [4] (10 μM BA, Lynx). Further, in the experiment with Ckx1, the Ckx1 induced is ~60 fold.
